From patent US20100285959A1, “HERBICIDAL MIXTURES” (priority 2006, published 2010)

Experiments:
[1] = test system: Pennsylvania smartweed (POLPY); assay: Test 25 field trial, postemergence, growth as percent of control; format: in vivo, Polygonum pensylvanicum; conditions: 14 DAA
Source text: (§1) Corn seeds (hybrid ‘Pioneer 31G96 RR’) were planted in mid spring season, 3.8 cm deep in a clay loam soil having 2% organic matter and a pH of 6.6. Plots were 6.1 m long by 3.0 m wide with rows spaced 76 cm apart. Seeds were spaced 15 cm apart within the rows. The field was managed using conventional tillage practices. […] Giant ragweed and Pennsylvania smartweed could only be evaluated 14 days after application. […] Results are the means of the three replicates. This growth inhibition data was converted to results in the form of “plant growth as a percent of control plant growth” using the calculation “100 minus growth inhibition”.
(§2) When this form of Colby's Equation is used, if the observed effects on weeds are less than the expected values, the mixture is synergistic.

[2] = test system: common lambsquarters (CHEAL); assay: as above; format: in vivo, Chenopodium album
Source text: as §1, §2

corn (ZEAMD) = assay: Test 28 greenhouse, post- and preemergence; format: in vivo, Zea mays ssp. indentata; parameters: scale not given here; conditions: 26 DAA
Method: A greenhouse test was conducted to evaluate the effects on the plant species corn (ZEAMD, Zea mays ssp. indentata), sorghum (SORVU, Sorghum vulgare L.), dry-seeded rice (ORYSA, Oryza sativa L.), wheat (TRZAW, Triticum aestivum L.), ivyleaf morningglory (IPOHE, Ipomoea hederacea (L.) JACQ.), and barnyardgrass (ECHCG, Echinochloa crus-galli (L.) P. BEAUV.), of mixtures of Compound 2 with isoxadifen-ethyl. Corn, sorghum, rice, wheat, ivyleaf morningglory and barnyardgrass seeds were planted in RediEarth, a commercial potting medium. […] Corn plants were treated postemergence at the V2 growth stage, and sorghum, rice, wheat, ivyleaf morningglory, and barnyardgrass plants were treated postemergence at the 3-leaf stage. […] Each treatment was replicated three times. […] Plants were watered as needed.

field violet (VIOAR) = assay: Test 24 growth chamber, postemergence; format: in vivo, Viola arvensis; conditions: 17 DAA
Method: Plants were treated postemergence at the 2-4 leaf growth stage, and each treatment was replicated three times. […] Plants were watered as needed. […] Results for barley and wheat are the means across varieties of the three replicates, and results for the weeds are the means of the three replicates.

Russian thistle (SASKR) = assay: Test 4 field trial, postemergence; format: in vivo, Salsola kali; parameters: scale not given here
Method: A field trial was conducted to evaluate the effects of mixtures of Compound 2 with commercial herbicides on spring wheat (TRZAS, Triticum aestivum L.) and several weed species. Wheat seeds (cv. ‘AC Intrepid’) were planted in late spring season, 3.8 cm deep in a loam soil having 2.7% organic matter and a pH of 7. Plots were 6 m long by 2.5 m wide. The field was managed using no-till practices. The plots were arranged in a randomized complete block design with each treatment being replicated four times. Treatments were applied postemergence 25 days after planting using a backpack sprayer delivering a spray volume of 55 L/ha using a pressure of 276 kPa. […] Compound 2 and clodinafop treatments, alone and in combination, also included a surfactant. Weed species present in the experimental plots in sufficient quantity to be evaluated included wild oat (AVEFA, Avena fatua L.), common lambsquarters (CHEAL, Chenopodium album L.), kochia (KCHSC, Kochia scoparia (L.) Schrad.), wild buckwheat (POLCO, Polygonum convolvulus L.), Russian thistle (SASKR, Salsola kali L. ssp. ruthenica (Iljin) Soo), and field pennycress (THLAR, Thlaspi arvense L.). […] Common lambsquarters was evaluated only at 14 days after application. […] Results are the means of the four replicates.

[3] = test system: smallflower umbrella sedge (CYPDI); assay: Test 32 greenhouse, simulated flooded rice culture; format: in vivo, Cyperus difformis; conditions: postemergence to flood, 21 DAA
Method: A greenhouse trial was conducted to evaluate the effects of Compound 1 and isoxadifen-ethyl at different ratios in simulated flooded rice culture. Plastic pots (11-cm diameter) were partially filled with non-sterilized Tama silt loam soil containing a 15:57:28 ratio of sand, silt and clay and 2.9% organic matter. Seeds of Heteranthera limosa (ducksalad; HETLI), Cyperus difformis (smallflower umbrella sedge; CYPDI), one stand of Echinochloa crus-galli (barnyardgrass; ECHCG), and one stand of four rice seedlings (Oryza sativa cv. ‘M202’; ORYSA) were planted into a single 11-cm diameter pot for each rate and mixture of rates. To obtain this planting, C. difformis and H. limosa seeds were planted separately on the surface soil layer at particular locations within each pot. Water levels were brought to a puddled condition above the soil surface directly after planting. E. crus-galli and rice seeds were planted in cavity trays in the silt loam soil and transplanted at the 1.5 and 2.0 leaf stage, respectively. E. crus-galli and rice plants were transplanted to about 2-cm depth by transferring plugs from the cavity trays. Plantings were sequential so that these plant species all reached the 2.0- to 2.5-leaf stage in the 11-cm diameter pot at time of treatment. Plantings were established and maintained in a greenhouse with day and night temperatures of about 29.5 and 26.7° C. respectively; supplemental balanced lighting was provided to maintain a 16-hour photoperiod. Pots were fertilized periodically with a 200 ppm solution of commercial Scotts Peters® Professional® General Purpose 20-20-20 Water Soluble Fertilizer, amended to 10 ppm with a commercial iron-chelate micronutrient fertilizer. The solution was supplied at time of watering via a liquid fertilizer injector.
At treatment time, test pots were flooded to 3 cm above the soil surface and maintained at that water depth for the duration of the test. Chemical treatments were formulated in acetone and applied directly to the paddy water (i.e., postemergence to flood). Make-up volumes of acetone were added to ensure that all pots were treated with a consistent volume. Test pots were maintained in the greenhouse. A randomized complete block design was employed. Five replicates of each treatment, alone and in mixture, were used. Each species was visually evaluated for treatment effects by comparing those treated to untreated controls and rated for plant response after 21 days.

## COC(=O)c1nc(C2CC2)nc(N)c1Cl [Compound 2, methyl 6-amino-5-chloro-2-cyclopropyl-4-pyrimidinecarboxylate]
[1]; Cpd 2 15 g a.i./ha
  POLPY Obs (percent of control): 95%
[1]; Cpd 2 30 g a.i./ha
  POLPY Obs (percent of control): 55%
[1]; Cpd 2 45 g a.i./ha
  POLPY Obs (percent of control): 65%
[2]; Cpd 2 15 g a.i./ha, 14 DAA
  CHEAL Obs (percent of control): 15%
[2]; Cpd 2 15 g a.i./ha, 28 DAA
  CHEAL Obs (percent of control): 2%
[2]; Cpd 2 15 g a.i./ha, 56 DAA
  CHEAL Obs (percent of control): 0%
[2]; Cpd 2 30 g a.i./ha, 14 DAA
  CHEAL Obs (percent of control): 20%
[2]; Cpd 2 30 g a.i./ha, 28 DAA
  CHEAL Obs (percent of control): 1%
[2]; Cpd 2 30 g a.i./ha, 56 DAA
  CHEAL Obs (percent of control): 0%
[2]; Cpd 2 45 g a.i./ha, 14 DAA
  CHEAL Obs (percent of control): 7%
[2]; Cpd 2 45 g a.i./ha, 28 DAA
  CHEAL Obs (percent of control): 0%
[2]; Cpd 2 45 g a.i./ha, 56 DAA
  CHEAL Obs (percent of control): 0%
Corn (ZEAMD); postemergence, Cpd 2 32 g a.i./ha
  ZEAMD Obs: 27
Corn (ZEAMD); postemergence, Cpd 2 64 g a.i./ha
  ZEAMD Obs: 50
Corn (ZEAMD); preemergence, Cpd 2 32 g a.i./ha
  ZEAMD Obs: 7
Corn (ZEAMD); preemergence, Cpd 2 64 g a.i./ha
  ZEAMD Obs: 7
Field violet (VIOAR); Cpd 2 4 g a.i./ha
  VIOAR Obs (scale 0 to 100): 47
Field violet (VIOAR); Cpd 2 8 g a.i./ha
  VIOAR Obs (scale 0 to 100): 62
Field violet (VIOAR); Cpd 2 16 g a.i./ha
  VIOAR Obs (scale 0 to 100): 72
Russian thistle (SASKR); 14 DAA, Cpd 2 30 g a.i./ha alone or with clodinafop 56 or fenoxaprop 90
  SASKR Obs: 88
Russian thistle (SASKR); 14 DAA, Cpd 2 60 g a.i./ha alone or with clodinafop 56 or fenoxaprop 90
  SASKR Obs: 91
Russian thistle (SASKR); 35 DAA, Cpd 2 30 g a.i./ha alone or with clodinafop 56 or fenoxaprop 90
  SASKR Obs: 99
Russian thistle (SASKR); 35 DAA, Cpd 2 60 g a.i./ha alone
  SASKR Obs: 95

## Nc1nc(C2CC2)nc(C(=O)O)c1Cl [Compound 1, 6-amino-5-chloro-2-cyclopropyl-4-pyrimidinecarboxylic acid]
[3]; Cpd 1 31.25 g a.i./ha
  CYPDI Obs: 80
[3]; Cpd 1 62.5 g a.i./ha
  CYPDI Obs: 74
[3]; Cpd 1 125 g a.i./ha
  CYPDI Obs: 92
